Experimental data from ChEMBL document CHEMBL3217740, “Novel selective inhibitors of neutral endopeptidase: discovery by screening and hit-to-lead optimisation” (Medchemcomm, 2012).
≈ marks a conversion by molar mass, not a printed value.

Tests used:
[1] = 1-octanol-PBS distribution coefficient, Log D of the compound at pH 7.4 after 2 hrs by LC-MS analysis; type: physicochemical
Neprilysin = Neprilysin (Homo sapiens, UniProt P08473); assay: Inhibition of human NEP using N-Dansyl-D-Ala-Gly-p-nitro-Phe-Gly as substrate preincubated for 10 mins followed by substrate addition measured after 2 hrs by spectrophotometric analysis
[2] = Half life in rat plasma at 10 uM by LC-MS/MS; type: ADME, cell-free
[3] = molecular target: T1, Endothelin-converting enzyme 1 (Homo sapiens, UniProt P42892); assay: Inhibition of ECE-1 in human NCO cells using Mca-Arg-Pro-Pro-GlyPhe-Ser-Ala-DpaOH as substrate after 45 mins by fluorescence assay; type: cell-based
T1 sequence (P42892 whole entry): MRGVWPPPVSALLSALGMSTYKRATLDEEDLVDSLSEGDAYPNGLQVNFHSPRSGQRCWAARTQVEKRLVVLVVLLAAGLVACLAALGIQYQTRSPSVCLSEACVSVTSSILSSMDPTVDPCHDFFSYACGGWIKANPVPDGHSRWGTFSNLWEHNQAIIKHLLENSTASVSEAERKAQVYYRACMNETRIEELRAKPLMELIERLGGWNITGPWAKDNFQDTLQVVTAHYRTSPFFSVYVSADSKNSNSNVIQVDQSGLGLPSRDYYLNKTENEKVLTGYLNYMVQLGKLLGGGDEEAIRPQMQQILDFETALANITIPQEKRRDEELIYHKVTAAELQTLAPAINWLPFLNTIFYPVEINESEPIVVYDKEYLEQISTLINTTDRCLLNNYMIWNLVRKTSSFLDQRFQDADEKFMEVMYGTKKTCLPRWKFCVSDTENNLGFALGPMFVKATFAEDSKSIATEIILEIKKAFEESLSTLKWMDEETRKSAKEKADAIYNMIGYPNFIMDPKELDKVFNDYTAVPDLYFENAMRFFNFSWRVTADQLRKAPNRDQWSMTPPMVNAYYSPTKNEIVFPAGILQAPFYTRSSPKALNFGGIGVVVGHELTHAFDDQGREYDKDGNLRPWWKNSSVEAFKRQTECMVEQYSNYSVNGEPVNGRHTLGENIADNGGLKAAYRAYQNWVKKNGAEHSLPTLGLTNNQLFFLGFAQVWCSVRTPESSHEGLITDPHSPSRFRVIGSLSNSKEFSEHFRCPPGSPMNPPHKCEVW

[4] = Solubility of the compound in PBS buffer at pH 7.4 after 24 hrs by LC-MS/MS analysis; type: physicochemical
[5] = molecular target: Angiotensin-converting enzyme (Homo sapiens, UniProt P12821); assay: Inhibition of human ACE-1 using Abz-Gly-p-nitro-Phe-Pro-OH as substrate preincubated for 10 mins followed by substrate addition measured after 17 hrs by spectrophotometric analysis
[6] = Stability of the compound assessed as GSH adduct formation by LC-MS analysis; type: ADME

Angiotensin-converting enzyme, sequence (P12821 whole entry): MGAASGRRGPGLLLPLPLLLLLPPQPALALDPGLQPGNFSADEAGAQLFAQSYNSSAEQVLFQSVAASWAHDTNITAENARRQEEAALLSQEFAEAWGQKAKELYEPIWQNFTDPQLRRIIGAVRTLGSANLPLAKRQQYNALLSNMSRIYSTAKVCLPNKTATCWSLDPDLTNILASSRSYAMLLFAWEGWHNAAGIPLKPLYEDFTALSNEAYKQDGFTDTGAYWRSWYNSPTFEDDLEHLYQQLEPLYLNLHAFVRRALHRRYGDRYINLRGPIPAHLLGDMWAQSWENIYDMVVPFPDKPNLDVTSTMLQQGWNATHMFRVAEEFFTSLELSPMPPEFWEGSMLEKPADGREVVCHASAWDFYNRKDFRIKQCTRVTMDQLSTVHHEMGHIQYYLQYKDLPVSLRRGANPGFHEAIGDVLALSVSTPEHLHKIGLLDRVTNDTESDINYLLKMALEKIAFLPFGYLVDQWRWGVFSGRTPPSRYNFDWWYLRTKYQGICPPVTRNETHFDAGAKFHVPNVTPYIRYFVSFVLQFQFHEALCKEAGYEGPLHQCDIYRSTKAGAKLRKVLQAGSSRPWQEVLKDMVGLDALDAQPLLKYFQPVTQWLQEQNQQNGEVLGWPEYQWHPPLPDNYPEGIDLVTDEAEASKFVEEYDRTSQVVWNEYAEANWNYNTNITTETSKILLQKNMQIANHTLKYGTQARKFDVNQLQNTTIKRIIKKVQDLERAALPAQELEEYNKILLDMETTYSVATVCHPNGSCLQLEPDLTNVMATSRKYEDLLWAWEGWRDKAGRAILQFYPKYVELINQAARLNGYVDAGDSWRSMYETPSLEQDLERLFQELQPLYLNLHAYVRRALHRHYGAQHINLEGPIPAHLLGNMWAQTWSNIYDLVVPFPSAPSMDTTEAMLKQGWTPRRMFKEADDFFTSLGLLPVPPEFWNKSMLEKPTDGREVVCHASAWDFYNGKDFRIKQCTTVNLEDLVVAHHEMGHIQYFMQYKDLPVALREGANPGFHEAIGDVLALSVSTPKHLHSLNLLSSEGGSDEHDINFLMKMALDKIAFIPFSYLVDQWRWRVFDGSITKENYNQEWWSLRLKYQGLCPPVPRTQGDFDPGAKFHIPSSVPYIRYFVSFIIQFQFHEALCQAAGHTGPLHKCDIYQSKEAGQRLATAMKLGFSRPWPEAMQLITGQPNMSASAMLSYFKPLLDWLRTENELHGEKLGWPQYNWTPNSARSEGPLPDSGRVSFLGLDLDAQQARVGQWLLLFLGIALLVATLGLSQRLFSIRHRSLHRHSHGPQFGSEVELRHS
Neprilysin, sequence (P08473 whole entry): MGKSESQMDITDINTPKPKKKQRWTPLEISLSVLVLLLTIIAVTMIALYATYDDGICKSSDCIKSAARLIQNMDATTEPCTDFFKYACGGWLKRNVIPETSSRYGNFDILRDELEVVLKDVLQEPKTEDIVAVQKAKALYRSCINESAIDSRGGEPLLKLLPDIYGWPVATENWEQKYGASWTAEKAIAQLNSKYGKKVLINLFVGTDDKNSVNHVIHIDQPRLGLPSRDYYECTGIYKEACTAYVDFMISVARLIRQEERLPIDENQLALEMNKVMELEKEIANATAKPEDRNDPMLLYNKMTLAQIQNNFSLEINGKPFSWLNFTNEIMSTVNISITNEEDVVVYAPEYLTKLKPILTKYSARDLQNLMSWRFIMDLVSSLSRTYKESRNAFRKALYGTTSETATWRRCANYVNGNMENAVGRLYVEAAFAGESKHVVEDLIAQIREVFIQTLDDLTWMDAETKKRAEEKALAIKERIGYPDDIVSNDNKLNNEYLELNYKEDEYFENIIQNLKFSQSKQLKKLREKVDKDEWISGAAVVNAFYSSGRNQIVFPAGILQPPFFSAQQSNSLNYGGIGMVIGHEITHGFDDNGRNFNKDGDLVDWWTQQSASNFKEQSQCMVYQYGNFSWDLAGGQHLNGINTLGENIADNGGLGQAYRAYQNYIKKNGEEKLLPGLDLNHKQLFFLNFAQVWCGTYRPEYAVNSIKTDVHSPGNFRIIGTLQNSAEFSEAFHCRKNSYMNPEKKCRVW

logD at 2 h [1] | IC50 (Neprilysin) [µM] | half-life at 10 µM [2] [h] | IC50 [3] [µM] | solubility at 24 h [4] [µM] | IC50 [5] [µM] | Stability [6] | SMILES
-3.4 | 0.794 | > 24 | > 31.6 | > 200 | > 31.6 | – | CC(C)C[C@@H](CC(=O)N[C@@H](CO)C(=O)O)C(=O)O
– | > 1000 | – | – | – | – | – | COC(=O)[C@H](CC(C)C)NC(=O)N[C@H](CO)C(=O)O (single isomer, unassigned)
– | > 1000 | – | – | – | – | – | COC(=O)[C@@H](CC(=O)N[C@H](CO)C(=O)O)CC(C)C
– | 2.51 | – | – | – | – | Unstable | CC(C)C[C@H]1CC(=O)N([C@@H](CO)C(=O)O)C1=O
– | > 1000 | – | – | – | – | – | COC(=O)[C@@H](CC(=O)N[C@@H](CO)C(=O)O)CC(C)C
-3.8 | 6.31 | > 24 | > 31.6 | > 200 | > 31.6 | – | CC(C)C[C@H](CC(=O)O)C(=O)N[C@@H](CO)C(=O)O
– | 79.4 | 0.1 | – | 160 (≈ 44 µg/mL) | – | – | COC(=O)[C@H](CC(=O)N[C@@H](CO)C(=O)O)CC(C)C
-3.8 | > 1000 | > 24 | > 31.6 | > 200 | > 31.6 | – | CC(C)C[C@H](CC(=O)N[C@@H](CO)C(=O)O)C(=O)O
– | > 1000 | – | – | – | – | – | COC(=O)[C@H](CC(=O)N[C@H](CO)C(=O)O)CC(C)C
– | > 1000 | – | – | – | – | – | COC(=O)C(CC(C)C)C(=O)N[C@H](CO)C(=O)O (mixture of isomers)
– | > 1000 | – | – | – | – | – | COC(=O)[C@H](CC(C)C)NC(=O)N[C@@H](CO)C(=O)O
– | 50.1 | – | – | – | – | – | COC(=O)C(CC(C)C)C(=O)N[C@@H](CO)C(=O)O (mixture of isomers)
-3.7 | 0.0631 | > 24 | > 31.6 | > 200 | > 31.6 | Stable | CC(C)C[C@@H](CC(=O)O)C(=O)N[C@@H](CO)C(=O)O
